Data reported in patent US8044056B2, “Adenine compound” (priority 2007, dated 2011).

molecular target: T1, Human TLR7 (Homo sapiens, UniProt Q9NYK1); assay: Human TLR7 reporter assay (NF-kB-SEAP); type: cell-based; settings: HEK293 cells stably carrying human TLR7 plasmid and NF-kB-SEAP reporter; 20 hours incubation; 1 nM-10 μM; absorbance 405 nm; read-out: Human TLR7 binding activity (pEC50) (converted)
T1 construct: expressed in transfected cells; host or cells: HEK293 (hTLR7/seap-293)
T1 sequence (Q9NYK1 27-1049): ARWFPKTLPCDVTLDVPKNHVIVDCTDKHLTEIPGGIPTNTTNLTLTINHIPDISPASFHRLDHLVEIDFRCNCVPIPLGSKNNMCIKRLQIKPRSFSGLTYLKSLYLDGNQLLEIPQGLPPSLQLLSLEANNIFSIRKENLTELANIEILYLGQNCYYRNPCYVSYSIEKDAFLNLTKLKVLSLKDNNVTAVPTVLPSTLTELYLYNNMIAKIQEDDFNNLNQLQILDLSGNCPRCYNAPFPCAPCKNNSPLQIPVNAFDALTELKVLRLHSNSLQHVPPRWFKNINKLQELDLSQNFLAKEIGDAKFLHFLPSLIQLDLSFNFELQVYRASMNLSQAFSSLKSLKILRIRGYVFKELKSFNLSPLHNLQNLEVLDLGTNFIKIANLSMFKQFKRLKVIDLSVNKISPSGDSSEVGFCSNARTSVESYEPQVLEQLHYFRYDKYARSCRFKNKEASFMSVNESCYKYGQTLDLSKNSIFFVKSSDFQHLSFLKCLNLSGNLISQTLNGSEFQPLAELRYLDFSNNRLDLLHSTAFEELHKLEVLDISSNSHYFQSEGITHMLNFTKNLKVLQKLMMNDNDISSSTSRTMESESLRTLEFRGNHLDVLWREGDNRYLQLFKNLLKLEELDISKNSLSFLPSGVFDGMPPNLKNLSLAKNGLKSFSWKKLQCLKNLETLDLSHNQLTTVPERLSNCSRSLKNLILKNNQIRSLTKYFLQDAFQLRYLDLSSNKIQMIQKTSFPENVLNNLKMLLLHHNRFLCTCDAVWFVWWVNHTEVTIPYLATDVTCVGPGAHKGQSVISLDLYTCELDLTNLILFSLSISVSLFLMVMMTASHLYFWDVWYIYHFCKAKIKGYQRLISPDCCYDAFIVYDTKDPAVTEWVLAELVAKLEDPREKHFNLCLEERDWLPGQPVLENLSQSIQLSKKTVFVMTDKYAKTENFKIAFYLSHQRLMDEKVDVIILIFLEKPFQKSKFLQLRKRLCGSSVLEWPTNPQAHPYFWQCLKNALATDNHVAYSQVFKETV
Protocol: Human TLR7 or rat TLR7 plasmid and a reporter plasmid (NF-kB-SEAP) stably-induced HEK293 cells were suspended in DMEM media (10% FBS, 1% NEAA, 10 μg/mL blastocidin S HCl, 100 ug/mL Zeocin), and the suspension was seeded on a 96-well plate in an amount of 90 μl/well (hTLR7/seap-293: 20000 cells/well, rTLR7/seap-293: 25000 cells/well).
To the cells seeded on the 96-well plate was added a test compound wherein DMSO stock solution (2 μl) was hundredfold diluted with medium (200 μl) in an amount of 10 μl/well (final concentration; 1 nM-10 μM, common ratio 3). The mixture was stirred by tapping in the side of the plate, and then incubated for 20 hours in a CO2 incubator. To the cells stimulated by a test compound was added a substrate for reporter assay (substrate for SEAP, pNPP) in an amount of 50 μl/well. Ten minutes after the addition of the substrate, a quenching solution (4N NaOH) was added in an amount of 50 μl/well, and the enzymatic reaction was quenched. Top seal A was attached on the plate, and the absorbance was measured by microplate reader (405 nm).

| SMILES | EC50 [nM] |
| --- | --- |
| CCCCOc1nc(N)c2[nH]c(=O)n(CCCN3CCN(C/C=C/c4ccccc4)CC3)c2n1 [Example 4, 2-Butoxy-9-(3-[4-cinnamylpiperazin-1-yl]propyl)-7,8-dihydro-8-oxoadenine] | 794 |
| CCCCOc1nc(N)c2[nH]c(=O)n(CCCCCCCN3CCN(c4ccc(C(C)=O)cc4)CC3)c2n1 [Example 5, 9-(7-[4-(4-Acetylphenyl)piperazin-1-yl]heptyl-2-butoxy-7,8-dihydro)-8-oxoadenine] | 158 |
| CCCCOc1nc(N)c2[nH]c(=O)n(CCCCCCCN3CCN(c4ccncc4)CC3)c2n1 [Example 6, 2-Butoxy-7,8-dihydro-9-(7-[4-(4-pyridyl)piperazin-1-yl]heptyl)-8-oxoadenine] | 31.6 |
| CCCCOc1nc(N)c2[nH]c(=O)n(CCCCCCCN3CCC(Oc4ccc(Cl)cc4C)CC3)c2n1 [Example 7, 2-Butoxy-9-(7-[4-(4-chloro-2-methylphenoxy)piperidin-1-yl]heptyl)-7,8-dihydro-8-oxoadenine] | 631 |
| CCCCOc1nc(N)c2[nH]c(=O)n(CCCCCCCN3CCN(c4ccc(OC)cc4)CC3)c2n1 [Example 8, 2-Butoxy-7,8-dihydro-9-(7-[4-(4-methoxyphenyl)piperazin-1-yl]heptyl)-8-oxoadenine] | 251 |
